Laboratory results as given in patent publication EP4467141A1, “PYRAZOLO-QUINOLINES AS SELECTIVE INHIBITORS OF GENOTOXIC STRESS-INDUCED IKK/NF- KB PATHWAYS FOR CANCER THERAPY” (Max-Delbrück-Centrum für Molekulare Medizin in der …, priority 2023, dated 2024).

Key:
CHUK (IKK alpha) = biological target: T1, CHUK (IKK alpha) (Homo sapiens, UniProt O15111); experiment: Kinase panel study; type: biochemical; settings: read-out: Percentage of inhibition; for inhibition at 1 µM: 1000nM; for inhibition at 10 µM: 10000nM
T1 construct: purchased Thermo Fisher Scientific
T1 sequence (O15111 1-745): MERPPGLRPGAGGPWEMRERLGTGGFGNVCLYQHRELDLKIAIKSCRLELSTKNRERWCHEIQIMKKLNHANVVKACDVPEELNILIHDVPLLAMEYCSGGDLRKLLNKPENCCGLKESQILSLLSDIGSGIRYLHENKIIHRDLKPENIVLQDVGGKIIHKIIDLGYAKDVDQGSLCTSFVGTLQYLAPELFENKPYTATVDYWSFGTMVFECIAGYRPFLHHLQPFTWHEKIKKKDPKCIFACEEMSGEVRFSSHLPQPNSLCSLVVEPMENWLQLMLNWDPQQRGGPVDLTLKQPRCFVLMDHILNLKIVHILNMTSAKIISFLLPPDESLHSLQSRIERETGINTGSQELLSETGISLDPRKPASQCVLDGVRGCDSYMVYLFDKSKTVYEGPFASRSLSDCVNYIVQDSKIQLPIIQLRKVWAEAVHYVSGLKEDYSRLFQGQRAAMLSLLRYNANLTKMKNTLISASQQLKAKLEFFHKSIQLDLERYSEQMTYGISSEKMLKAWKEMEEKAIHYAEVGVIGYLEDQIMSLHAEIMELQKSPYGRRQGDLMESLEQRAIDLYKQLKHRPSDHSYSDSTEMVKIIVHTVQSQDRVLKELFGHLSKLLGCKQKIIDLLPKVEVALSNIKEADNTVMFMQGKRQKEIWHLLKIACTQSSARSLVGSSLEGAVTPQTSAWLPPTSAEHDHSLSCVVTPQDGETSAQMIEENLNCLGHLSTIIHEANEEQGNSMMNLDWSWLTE
Method in brief: (§1)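 In vitro, kinase panel; ZLyte or Adapta SOP; single-concentration testing (1 or 10 µM); output = % inhibition, plus IC50 in panel.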

PRKG1 = biological target: T2, PRKG1 (Homo sapiens, UniProt Q13976); experiment: Kinase panel study; type: biochemical; settings: read-out: Percentage of inhibition; for inhibition at 1 µM: 1000nM; for inhibition at 10 µM: 10000nM
T2 construct: purchased Thermo Fisher Scientific
T2 sequence (Q13976 1-671): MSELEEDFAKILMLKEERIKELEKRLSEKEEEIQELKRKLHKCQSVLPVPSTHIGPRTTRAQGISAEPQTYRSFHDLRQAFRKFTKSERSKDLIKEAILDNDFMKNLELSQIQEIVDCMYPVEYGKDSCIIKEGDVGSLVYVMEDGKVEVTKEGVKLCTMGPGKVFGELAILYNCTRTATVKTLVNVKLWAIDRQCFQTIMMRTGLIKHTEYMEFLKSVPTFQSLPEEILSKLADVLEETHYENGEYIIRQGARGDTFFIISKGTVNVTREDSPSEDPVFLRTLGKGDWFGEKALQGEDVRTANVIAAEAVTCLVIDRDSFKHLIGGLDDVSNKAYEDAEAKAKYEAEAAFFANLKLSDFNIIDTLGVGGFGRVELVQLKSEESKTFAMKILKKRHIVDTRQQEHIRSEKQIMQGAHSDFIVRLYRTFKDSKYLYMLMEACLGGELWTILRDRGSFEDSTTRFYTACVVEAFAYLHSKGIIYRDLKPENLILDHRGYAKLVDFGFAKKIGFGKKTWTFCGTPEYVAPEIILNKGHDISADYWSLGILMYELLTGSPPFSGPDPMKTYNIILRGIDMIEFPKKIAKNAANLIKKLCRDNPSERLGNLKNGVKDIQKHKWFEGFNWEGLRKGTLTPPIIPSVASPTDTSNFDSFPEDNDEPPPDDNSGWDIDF
Method in brief: as §1

| SMILES | inhibition at 1 µM (CHUK (IKK alpha)) [%] | inhibition at 10 µM (CHUK (IKK alpha)) [%] | inhibition at 1 µM (PRKG1) [%] | inhibition at 10 µM (PRKG1) [%] |
| --- | --- | --- | --- | --- |
| COc1ccc2c(c1OC)c(=O)n1c3ccc(O)cc3c3ccnc2c31 [MW01, 5-Hydroxy-10,11-dimethoxy-9H-benzo[c]indolo[3,2,1-ij][1,5]naphthyridin-9-one] | 19 | 21 | 27 | 59 |
| COc1ccc2cc3c(N)nn(C(=O)c4cccc(N(C)C)c4)c3nc2c1 [MW05, (3-Amino-7-methoxypyrazolo[3,4-b]quinolin-1-yl)-[3-(dimethylamino)phenyl]methanone] | 7 | 18 | 5 | -11 |
